Results: patent US20120134948A1, “ANTIMICROBIAL ETHER GUANIDINES” (EVONIK GOLDSCHMIDT GMBH, priority 2009, published 2012)

Experiments:
Assay type in all cases: cell-based
Streptococcus mutans = assay: Antimicrobial activity, live microbial count (CFU) after contact in suspension
Description: (§1) The test microorganisms were inoculated from a strain culture into an agar-containing Caso medium (Merck, Darmstadt, Germany) and incubated for 24 h to 48 hours at 25 to 37° C., depending on the microorganism. A Caso slanted agar tube was inoculated with this preculture and again incubated under identical conditions.
(§2) To prepare the microorganism suspension to be tested, the microorganisms were washed off with 5 ml of phosphate-buffer saline (PBS, 50 mM potassium phosphate pH6, 100 mM NaCl), made up to 12.5 ml with PBS and resuspended by vortexing. To carry out the following test, this microorganism suspension was diluted to a microbial count of from 2U+5 to 8U+5.
(§3) The products to be tested made as a stock solution; they contained 10 g of ethanol, 0.68 g of macrogol glycerol hydroxystearate 40 (Cremophor® RH40, Omikron, Neckarwestheim, Germany), 1 g of the active substance to be tested and 38.32 g of double-distilled water. This solution was mixed with the microorganism suspension at a ratio of 1:1 in the test and gave an active substance concentration in the test of 1%. If it was intended to test a lower active substance concentration than 1%, the stock solution of the active substance was made up at a correspondingly lower concentration. The substances tested were the ether guanidine of example 1, and double distilled water by way of negative control.
(§4) To carry out the test, 1 ml-Eppendorf cubes were filled with 500 μl of microorganism suspension and with 500 μl stock solution and the contents were mixed carefully. After 20 min, 1 h and 3 h, respectively, 10 μl were removed from the tubes, and the live microbial count (colony-forming units, CFU) were determined by plating out various dilution of these test mixtures on Caso agar.

Candida albicans = assay: as above
Description: as §1, §2, §3, §4

Propionibacterium acnes = assay: as above
Description: as §1, §2, §3, §4

Malassezia furfur = assay: as above
Description: as §1, §2, §3, §4

Corynebacterium xerosis = assay: as above
Description: as §1, §2, §3, §4

[1] = tested on: Staphylococcus epidermidis; assay: as above
Description: as §1, §2, §3, §4

test microorganisms = assay: Antimicrobial activity test, overall statement; conditions: overall observation; microbial count in negative controls unchanged
Description: as §1, §2
The products to be tested made as a stock solution; they contained 10 g of ethanol, 0.68 g of macrogol glycerol hydroxystearate 40 (Cremophor® RH40, Omikron, Neckarwestheim, Germany), 1 g of the active substance to be tested and 38.32 g of double-distilled water. […]
as §4

[2] = 1% Ex. 1, 0 min (starting count)

C12-15-oxypropylguanidinium chloride [Ex. 1]
CFU/ml 0 min (Streptococcus mutans; [2]): 3.2E+5 CFU/ml
CFU/ml 20 min (Streptococcus mutans; 1% Ex. 1, 20 min): <2.0E+2 CFU/ml
CFU/ml 60 min (Streptococcus mutans; 1% Ex. 1, 60 min): <2.0E+2 CFU/ml
CFU/ml 180 min (Streptococcus mutans; 1% Ex. 1, 180 min): <2.0E+2 CFU/ml
CFU/ml 0 min (Candida albicans; 0.01% Ex. 1, 0 min (starting count)): 3.9E+5 CFU/ml
CFU/ml 20 min (Candida albicans; 0.01% Ex. 1, 20 min): 4.7E+5 CFU/ml
CFU/ml 60 min (Candida albicans; 0.01% Ex. 1, 60 min): 2.2E+5 CFU/ml
CFU/ml 180 min (Candida albicans; 0.01% Ex. 1, 180 min): 6.1E+4 CFU/ml
CFU/ml 0 min (Candida albicans; 0.1% Ex. 1, 0 min (starting count)): 3.9E+5 CFU/ml
CFU/ml 20 min (Candida albicans; 0.1% Ex. 1, 20 min): 5.5E+5 CFU/ml
CFU/ml 60 min (Candida albicans; 0.1% Ex. 1, 60 min): 4.3E+4 CFU/ml
CFU/ml 180 min (Candida albicans; 0.1% Ex. 1, 180 min): <2.0E+2 CFU/ml
CFU/ml 0 min (Candida albicans; [2]): 3.9E+5 CFU/ml
CFU/ml 20 min (Candida albicans; 1% Ex. 1, 20 min): <2.0E+2 CFU/ml
CFU/ml 60 min (Candida albicans; 1% Ex. 1, 60 min): <2.0E+2 CFU/ml
CFU/ml 180 min (Candida albicans; 1% Ex. 1, 180 min): <2.0E+2 CFU/ml
CFU/ml 0 min (Propionibacterium acnes; [2]): 2.0E+5 CFU/ml
CFU/ml 20 min (Propionibacterium acnes; 1% Ex. 1, 20 min): <2.0E+2 CFU/ml
CFU/ml 60 min (Propionibacterium acnes; 1% Ex. 1, 60 min): <2.0E+2 CFU/ml
CFU/ml 180 min (Propionibacterium acnes; 1% Ex. 1, 180 min): <2.0E+2 CFU/ml
CFU/ml 0 min (Malassezia furfur; [2]): 1.4E+5 CFU/ml
CFU/ml 20 min (Malassezia furfur; 1% Ex. 1, 20 min): <2.0E+2 CFU/ml
CFU/ml 60 min (Malassezia furfur; 1% Ex. 1, 60 min): <2.0E+2 CFU/ml
CFU/ml 180 min (Malassezia furfur; 1% Ex. 1, 180 min): <2.0E+2 CFU/ml
CFU/ml 0 min (Corynebacterium xerosis; [2]): 1.7E+5 CFU/ml
CFU/ml 20 min (Corynebacterium xerosis; 1% Ex. 1, 20 min): <2.0E+2 CFU/ml
CFU/ml 60 min (Corynebacterium xerosis; 1% Ex. 1, 60 min): <2.0E+2 CFU/ml
CFU/ml 180 min (Corynebacterium xerosis; 1% Ex. 1, 180 min): <2.0E+2 CFU/ml
CFU/ml 0 min [1, 2]: 1.2E+5 CFU/ml
CFU/ml 20 min ([1]; 1% Ex. 1, 20 min): <2.0E+2 CFU/ml
CFU/ml 60 min ([1]; 1% Ex. 1, 60 min): <2.0E+2 CFU/ml
CFU/ml 180 min ([1]; 1% Ex. 1, 180 min): <2.0E+2 CFU/ml
antimicrobial activity (test microorganisms): pronounced antimicrobial activity
